{
  "source": "patent US8778958B2",
  "about": "“Synthesis of metabolically stable agents for alcohol and drug abuse” (priority 2008, dated 2014)",
  "key": {"μ-opioid receptor [1]": {"target": "T1, μ-opioid receptor (Mus musculus, UniProt P42866)", "T1 construct": "FLAG; expressed in transfected cells", "T1 sequence (P42866 whole entry)": "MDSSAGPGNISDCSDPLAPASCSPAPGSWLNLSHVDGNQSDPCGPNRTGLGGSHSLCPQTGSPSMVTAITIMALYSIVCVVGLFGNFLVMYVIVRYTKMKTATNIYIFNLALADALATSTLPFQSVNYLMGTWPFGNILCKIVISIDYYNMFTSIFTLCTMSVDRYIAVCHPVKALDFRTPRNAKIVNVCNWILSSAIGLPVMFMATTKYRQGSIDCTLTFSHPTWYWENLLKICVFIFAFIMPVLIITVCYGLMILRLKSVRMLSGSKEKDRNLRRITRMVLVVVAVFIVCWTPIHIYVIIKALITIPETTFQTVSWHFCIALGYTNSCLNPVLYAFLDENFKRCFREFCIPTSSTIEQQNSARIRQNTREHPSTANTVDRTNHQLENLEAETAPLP", "assay": "biochemical", "design": "species or system human", "conditions": "percentage of basal [35S]GTPγS binding stimulation"}, "κ-opioid receptor [2]": {"target": "T2, κ-opioid receptor (Mus musculus, UniProt P33534)", "T2 construct": "FLAG; expressed in transfected cells", "T2 sequence (P33534 whole entry)": "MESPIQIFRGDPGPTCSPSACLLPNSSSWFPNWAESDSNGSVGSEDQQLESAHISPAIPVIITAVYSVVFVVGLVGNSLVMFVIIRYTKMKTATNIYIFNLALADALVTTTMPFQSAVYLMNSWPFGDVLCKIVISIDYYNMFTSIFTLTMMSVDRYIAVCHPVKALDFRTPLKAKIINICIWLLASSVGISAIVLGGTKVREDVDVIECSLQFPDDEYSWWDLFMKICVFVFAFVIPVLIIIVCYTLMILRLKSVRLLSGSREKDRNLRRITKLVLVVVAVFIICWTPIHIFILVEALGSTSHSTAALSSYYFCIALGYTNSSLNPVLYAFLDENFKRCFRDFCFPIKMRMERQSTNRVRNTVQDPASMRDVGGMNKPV", "assay": "biochemical", "format": "biochemical, human"}, "[3]": {"target": "T3, NOP (nociceptin) receptor (Homo sapiens, UniProt P41146)", "T3 sequence (P41146 whole entry)": "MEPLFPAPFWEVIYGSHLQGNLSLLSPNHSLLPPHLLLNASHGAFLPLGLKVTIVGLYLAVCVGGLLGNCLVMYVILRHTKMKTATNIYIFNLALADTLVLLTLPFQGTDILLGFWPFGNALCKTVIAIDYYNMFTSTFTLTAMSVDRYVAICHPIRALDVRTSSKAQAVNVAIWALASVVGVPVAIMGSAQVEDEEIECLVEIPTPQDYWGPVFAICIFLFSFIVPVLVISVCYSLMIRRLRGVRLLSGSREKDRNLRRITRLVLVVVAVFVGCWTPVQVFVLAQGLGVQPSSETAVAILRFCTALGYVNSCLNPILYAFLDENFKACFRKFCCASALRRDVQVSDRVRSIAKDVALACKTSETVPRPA"}, "CYP3A4": {"target": "CYP3A4 (Homo sapiens, UniProt P08684)", "sequence (P08684 whole entry)": "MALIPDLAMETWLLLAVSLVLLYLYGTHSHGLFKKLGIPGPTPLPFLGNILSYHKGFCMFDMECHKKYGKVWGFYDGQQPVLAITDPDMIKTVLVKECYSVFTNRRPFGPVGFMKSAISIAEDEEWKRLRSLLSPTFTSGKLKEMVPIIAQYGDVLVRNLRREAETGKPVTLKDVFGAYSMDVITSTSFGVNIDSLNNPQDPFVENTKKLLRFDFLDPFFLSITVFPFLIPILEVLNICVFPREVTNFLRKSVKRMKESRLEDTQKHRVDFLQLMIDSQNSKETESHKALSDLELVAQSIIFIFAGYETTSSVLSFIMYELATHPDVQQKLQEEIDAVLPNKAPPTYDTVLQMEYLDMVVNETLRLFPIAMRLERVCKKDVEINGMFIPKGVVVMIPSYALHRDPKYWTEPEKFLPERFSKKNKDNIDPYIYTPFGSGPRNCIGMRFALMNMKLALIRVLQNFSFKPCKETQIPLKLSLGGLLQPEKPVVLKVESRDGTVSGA", "assay": "CYP inhibition, CYP3A4 (testosterone 6-hydroxylation)", "conditions": "10 μM test compound; ND = no detectable inhibition"}, "CYP2B6": {"target": "T4, CYP2B6 (Homo sapiens, UniProt P20813)", "T4 sequence (P20813 1-491)": "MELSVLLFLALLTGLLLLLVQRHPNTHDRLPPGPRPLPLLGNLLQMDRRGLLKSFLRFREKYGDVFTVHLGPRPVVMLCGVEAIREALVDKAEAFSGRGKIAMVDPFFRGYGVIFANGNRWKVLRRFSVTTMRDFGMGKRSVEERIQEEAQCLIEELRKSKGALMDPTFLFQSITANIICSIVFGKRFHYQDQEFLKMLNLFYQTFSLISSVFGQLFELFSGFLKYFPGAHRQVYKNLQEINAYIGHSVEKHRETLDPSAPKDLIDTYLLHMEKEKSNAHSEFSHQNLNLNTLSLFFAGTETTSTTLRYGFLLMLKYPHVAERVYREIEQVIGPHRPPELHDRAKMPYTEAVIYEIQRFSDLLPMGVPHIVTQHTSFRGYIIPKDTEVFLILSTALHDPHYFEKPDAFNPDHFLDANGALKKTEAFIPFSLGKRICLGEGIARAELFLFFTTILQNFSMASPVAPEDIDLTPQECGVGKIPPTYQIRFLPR", "assay": "CYP inhibition, CYP2B6 (Vivid Blue substrate)", "conditions": "10 μM test compound; ND = no detectable inhibition"}, "CYP2D6": {"target": "CYP2D6 (Homo sapiens, UniProt P10635)", "sequence (P10635 whole entry)": "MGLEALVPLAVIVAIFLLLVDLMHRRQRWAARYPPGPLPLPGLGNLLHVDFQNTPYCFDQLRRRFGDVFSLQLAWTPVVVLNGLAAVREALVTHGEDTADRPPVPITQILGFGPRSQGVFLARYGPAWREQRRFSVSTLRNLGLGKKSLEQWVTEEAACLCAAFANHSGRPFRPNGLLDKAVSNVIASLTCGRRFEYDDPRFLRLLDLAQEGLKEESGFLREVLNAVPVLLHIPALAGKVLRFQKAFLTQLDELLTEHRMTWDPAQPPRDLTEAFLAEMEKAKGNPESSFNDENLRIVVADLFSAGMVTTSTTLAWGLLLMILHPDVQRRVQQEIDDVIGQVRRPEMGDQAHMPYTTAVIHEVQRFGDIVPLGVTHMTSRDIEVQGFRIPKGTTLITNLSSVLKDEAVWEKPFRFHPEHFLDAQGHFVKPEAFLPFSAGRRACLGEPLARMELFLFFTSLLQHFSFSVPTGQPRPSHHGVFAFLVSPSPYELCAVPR", "assay": "CYP inhibition, CYP2D6 (Vivid Blue substrate)", "conditions": "10 μM test compound; ND = no detectable inhibition"}, "δ-opioid receptor [4]": {"target": "T5, δ-opioid receptor (Mus musculus, UniProt P32300)", "T5 construct": "hemagglutinin (HA); expressed in transfected cells", "T5 sequence (P32300 whole entry)": "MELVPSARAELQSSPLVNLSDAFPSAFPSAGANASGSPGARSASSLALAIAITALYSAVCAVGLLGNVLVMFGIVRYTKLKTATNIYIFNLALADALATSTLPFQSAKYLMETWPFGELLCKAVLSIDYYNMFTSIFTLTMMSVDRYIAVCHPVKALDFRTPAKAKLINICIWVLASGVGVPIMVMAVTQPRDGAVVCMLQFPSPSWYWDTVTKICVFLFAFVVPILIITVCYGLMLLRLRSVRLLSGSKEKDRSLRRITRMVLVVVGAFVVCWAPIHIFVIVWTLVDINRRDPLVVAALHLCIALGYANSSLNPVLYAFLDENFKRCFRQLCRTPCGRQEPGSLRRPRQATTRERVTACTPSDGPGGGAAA", "assay": "biochemical", "format": "biochemical, human"}, "κ-opioid receptor [5]": {"target": "T2, κ-opioid receptor", "assay": "biochemical", "design": "species or system human", "conditions": "percentage of basal [35S]GTPγS binding stimulation"}, "[6]": {"target": "T3, NOP (nociceptin) receptor", "assay": "Stimulation of [35S]GTPγS binding (agonist activity), NOP", "conditions": "read-out: EC50, NOP, stimulation of [35S]GTPγS binding; cells printed in μM"}, "CYP2C9": {"target": "CYP2C9 (Homo sapiens, UniProt P11712)", "sequence (P11712 whole entry)": "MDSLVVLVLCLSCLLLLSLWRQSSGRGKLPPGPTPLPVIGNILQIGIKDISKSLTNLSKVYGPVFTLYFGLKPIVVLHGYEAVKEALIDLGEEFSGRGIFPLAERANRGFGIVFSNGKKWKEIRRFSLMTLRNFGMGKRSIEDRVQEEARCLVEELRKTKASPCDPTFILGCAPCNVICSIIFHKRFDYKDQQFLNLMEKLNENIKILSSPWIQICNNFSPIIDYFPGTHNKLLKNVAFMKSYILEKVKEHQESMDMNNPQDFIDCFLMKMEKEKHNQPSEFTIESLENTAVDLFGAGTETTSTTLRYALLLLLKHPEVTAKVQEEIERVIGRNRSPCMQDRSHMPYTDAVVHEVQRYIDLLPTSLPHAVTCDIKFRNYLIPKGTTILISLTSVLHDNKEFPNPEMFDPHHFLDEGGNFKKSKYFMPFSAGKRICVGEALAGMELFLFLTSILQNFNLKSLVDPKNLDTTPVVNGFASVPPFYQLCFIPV", "assay": "CYP inhibition, CYP2C9 (diclofenac hydroxylase)", "conditions": "10 μM test compound; ND = no detectable inhibition"}, "μ-opioid receptor [7]": {"target": "T1, μ-opioid receptor", "assay": "biochemical", "format": "biochemical, human"}, "δ-opioid receptor [8]": {"target": "T5, δ-opioid receptor", "assay": "biochemical", "design": "species or system human", "conditions": "percentage of basal [35S]GTPγS binding stimulation"}, "CYP2C19": {"target": "CYP2C19 (Homo sapiens, UniProt P33261)", "sequence (P33261 whole entry)": "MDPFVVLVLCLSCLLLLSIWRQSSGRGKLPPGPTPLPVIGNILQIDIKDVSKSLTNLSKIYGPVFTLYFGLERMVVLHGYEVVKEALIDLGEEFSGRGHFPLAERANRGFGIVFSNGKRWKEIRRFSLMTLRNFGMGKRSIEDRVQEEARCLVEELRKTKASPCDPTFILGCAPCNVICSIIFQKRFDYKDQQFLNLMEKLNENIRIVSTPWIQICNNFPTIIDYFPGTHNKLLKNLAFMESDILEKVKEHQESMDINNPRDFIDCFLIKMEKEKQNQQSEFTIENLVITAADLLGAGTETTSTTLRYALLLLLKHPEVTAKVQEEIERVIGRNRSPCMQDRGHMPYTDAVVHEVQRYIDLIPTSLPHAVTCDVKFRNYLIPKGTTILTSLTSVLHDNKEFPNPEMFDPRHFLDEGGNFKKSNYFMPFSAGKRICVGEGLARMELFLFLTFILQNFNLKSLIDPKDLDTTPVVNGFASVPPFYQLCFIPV", "assay": "CYP inhibition, CYP2C19 (Vivid Blue substrate)", "conditions": "10 μM test compound; ND = no detectable inhibition"}, "[9]": {"target": "T3, NOP (nociceptin) receptor", "assay": "Inhibition of basal [35S]GTPγS binding (inverse agonism), NOP", "format": "biochemical", "design": "FLAG; expressed in transfected cells"}},
  "data": [
    {"compound": "O=C(N[C@@H]1CC[C@@]2(O)[C@H]3Cc4ccc(O)c5c4[C@@]2(CCN3CC2CC2)[C@H]1O5)c1ccc(Cl)c(Cl)c1", "note": "[Compound 9, 6-β-(3′,4′-Dichloro)benzamido-14-hydroxy-17-(cyclopropylmethyl)nordesmorphine]", "values": [
      {"measurement": "Emax, μ, stimulation of [35S]GTPγS binding", "setting": "μ-opioid receptor [1]", "result": "85 ± 7.4", "unit": "%"},
      {"measurement": "Emax, κ, inhibition of basal [35S]GTPγS binding", "setting": "κ-opioid receptor [2]", "result": 0, "unit": "%"},
      {"measurement": "Emax", "setting": "[3]", "result": 0, "unit": "%"},
      {"measurement": "Percent Inhibition CYP3A4", "setting": "CYP3A4", "result": 11, "unit": "%"},
      {"measurement": "Percent Inhibition CYP2B6", "setting": "CYP2B6", "result": 5, "unit": "%"},
      {"measurement": "Percent Inhibition CYP2D6", "setting": "CYP2D6", "result": 10, "unit": "%"},
      {"measurement": "Emax, δ, inhibition of basal [35S]GTPγS binding", "setting": "δ-opioid receptor [4]", "result": 0, "unit": "%"},
      {"measurement": "Emax, κ, stimulation of [35S]GTPγS binding", "setting": "κ-opioid receptor [5]", "result": "80 ± 7.4", "unit": "%"},
      {"measurement": "EC50", "setting": "[6]", "result": "> 10", "unit": "µM"},
      {"measurement": "Percent Inhibition CYP2C9", "setting": "CYP2C9", "result": 7, "unit": "%"},
      {"measurement": "Emax, μ, inhibition of basal [35S]GTPγS binding", "setting": "μ-opioid receptor [7]", "result": 0, "unit": "%"},
      {"measurement": "Emax, δ, stimulation of [35S]GTPγS binding", "setting": "δ-opioid receptor [8]", "result": "85 ± 35", "unit": "%"},
      {"measurement": "Percent Inhibition CYP2C19", "setting": "CYP2C19", "result": 39, "unit": "%"},
      {"measurement": "EC50", "setting": "[9]", "result": 0.1, "unit": "nM"},
      {"measurement": "Emax, NOP, inhibition of basal [35S]GTPγS binding", "setting": "[9]", "result": "87 ± 6.9", "unit": "%"}
    ]}
  ]
}
